Assay results from ChEMBL document CHEMBL1201862, “PubChem BioAssay data set” (2004).
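Protocol summary: plate cells (96-well), add compound at 5 concentrations, incubate 48 h, interpolate endpoints linearly. GI50 is the concentration that inhibits growth by half.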 The source made the active and inactive calls. No stated cut-off is given here; in the data, active = GI50 up to about 1.1 µM and inactive = higher.

Key:
Experiment in all cases: NCI anticancer screen, dose series, 48 h
[1] = test system: 786-0
[2] = test system: A498
[3] = test system: A549
[4] = test system: ACHN
[5] = test system: BT-549
[6] = test system: CAKI-1
[7] = test system: CCRF-CEM
[8] = test system: COLO 205
[9] = test system: DU-145
[10] = test system: EKVX
[11] = test system: HCC 2998
[12] = test system: HCT-116
[13] = test system: HCT-15
[14] = test system: HL-60
[15] = test system: HOP-62
[16] = test system: HOP-92
[17] = test system: HT-29
[18] = test system: Hs-578T
[19] = test system: IGROV-1
[20] = test system: K562
[21] = test system: KM12
[22] = test system: LOX IMVI
[23] = test system: M14
[24] = test system: MCF7
[25] = test system: MDA-MB-231
[26] = test system: MDA-MB-435
[27] = test system: MOLT-4
[28] = test system: Malme-3M
[29] = test system: NCI-H226
[30] = test system: NCI-H23
[31] = test system: NCI-H460
[32] = test system: NCI-H522
[33] = test system: NCI/ADR-RES
[34] = test system: OVCAR-3
[35] = test system: OVCAR-4
[36] = test system: OVCAR-5
[37] = test system: OVCAR-8
[38] = test system: PC-3
[39] = test system: RPMI-8226
[40] = test system: RXF 393
[41] = test system: SF-268
[42] = test system: SF-295
[43] = test system: SF-539
[44] = test system: SK-MEL-28
[45] = test system: SK-MEL-2
[46] = test system: SK-MEL-5
[47] = test system: SK-OV-3
[48] = test system: SN12C
[49] = test system: SNB-19
[50] = test system: SNB-75
[51] = test system: SR
[52] = test system: SW-620
[53] = test system: T47D
[54] = test system: TK-10
[55] = test system: U-251
[56] = test system: UACC-257
[57] = test system: UACC-62
[58] = test system: UO-31

C[N+](C)=C/C=C(\Cl)c1ccc2ccccc2c1
GI50 [1]: 13.1 µM (inactive)
GI50 [2]: > 63 µM (inactive)
GI50 [3]: > 75.7 µM (inactive)
GI50 [4]: 14 µM (inactive)
GI50 [5]: 17.7 µM (inactive)
GI50 [6]: 11.9 µM (inactive)
GI50 [7]: 1.66 µM (inactive)
GI50 [8]: 19.2 µM (inactive)
GI50 [9]: 14.9 µM (inactive)
GI50 [10]: 24.5 µM (inactive)
GI50 [11]: 6.37 µM (inactive)
GI50 [12]: 2.76 µM (inactive)
GI50 [13]: 2.62 µM
GI50 [14]: 6.52 µM (inactive)
GI50 [15]: 17.8 µM (inactive)
GI50 [16]: 21 µM (inactive)
GI50 [17]: 7.64 µM (inactive)
GI50 [18]: 32.4 µM (inactive)
GI50 [19]: 16.5 µM (inactive)
GI50 [20]: 5.04 µM (inactive)
GI50 [21]: 15 µM (inactive)
GI50 [22]: 4.33 µM (inactive)
GI50 [23]: 6.62 µM (inactive)
GI50 [24]: 19 µM (inactive)
GI50 [25]: 14.6 µM (inactive)
GI50 [26]: 16.7 µM (inactive)
GI50 [27]: 1.54 µM (inactive)
GI50 [28]: 11.8 µM (inactive)
GI50 [29]: 17.3 µM (inactive)
GI50 [30]: 5.98 µM (inactive)
GI50 [31]: 23.3 µM (inactive)
GI50 [32]: 21.4 µM (inactive)
GI50 [33]: 6.87 µM (inactive)
GI50 [34]: 6.24 µM (inactive)
GI50 [35]: 3.82 µM (inactive)
GI50 [36]: 19.9 µM (inactive)
GI50 [37]: 9.66 µM (inactive)
GI50 [38]: 19.8 µM (inactive)
GI50 [39]: 2.89 µM (inactive)
GI50 [40]: 16.5 µM (inactive)
GI50 [41]: 22.9 µM (inactive)
GI50 [42]: 16.9 µM (inactive)
GI50 [43]: 25.1 µM (inactive)
GI50 [44]: 3.61 µM (inactive)
GI50 [45]: 25.2 µM (inactive)
GI50 [46]: 18.1 µM (inactive)
GI50 [47]: 18 µM (inactive)
GI50 [48]: 19.1 µM (inactive)
GI50 [49]: 21.7 µM (inactive)
GI50 [50]: 21.5 µM (inactive)
GI50 [51]: 1.39 µM (inactive)
GI50 [52]: 4.29 µM (inactive)
GI50 [53]: 12.4 µM (inactive)
GI50 [54]: 16.3 µM (inactive)
GI50 [55]: 11.4 µM (inactive)
GI50 [56]: 12.2 µM (inactive)
GI50 [57]: 15.1 µM (inactive)
GI50 [58]: 17 µM (inactive)

COC1OC(C)/C(=N/O)C2OC(C)(C)OC12 (centres undefined)
GI50 [1]: > 100 µM (inactive)
GI50 [2]: > 100 µM (inactive)
GI50 [3]: > 100 µM (inactive)
GI50 [4]: > 100 µM (inactive)
GI50 [5]: > 100 µM (inactive)
GI50 [6]: > 100 µM (inactive)
GI50 [7]: > 100 µM (inactive)
GI50 [8]: > 100 µM (inactive)
GI50 [9]: > 100 µM (inactive)
GI50 [10]: > 100 µM (inactive)
GI50 [11]: > 100 µM (inactive)
GI50 [12]: > 100 µM (inactive)
GI50 [13]: > 100 µM
GI50 [14]: > 100 µM (inactive)
GI50 [15]: > 100 µM (inactive)
GI50 [16]: > 100 µM (inactive)
GI50 [17]: > 100 µM (inactive)
GI50 [18]: > 100 µM (inactive)
GI50 [19]: > 100 µM (inactive)
GI50 [20]: > 100 µM (inactive)
GI50 [21]: > 100 µM (inactive)
GI50 [22]: > 100 µM (inactive)
GI50 [23]: > 100 µM (inactive)
GI50 [24]: 78.7 µM (inactive)
GI50 [25]: > 100 µM (inactive)
GI50 [26]: > 100 µM (inactive)
GI50 [27]: > 100 µM (inactive)
GI50 [28]: > 100 µM (inactive)
GI50 [29]: > 100 µM (inactive)
GI50 [30]: > 100 µM (inactive)
GI50 [31]: > 100 µM (inactive)
GI50 [32]: > 100 µM (inactive)
GI50 [33]: > 100 µM (inactive)
GI50 [34]: > 100 µM (inactive)
GI50 [35]: > 100 µM (inactive)
GI50 [36]: > 100 µM (inactive)
GI50 [37]: > 100 µM (inactive)
GI50 [38]: > 100 µM (inactive)
GI50 [39]: > 100 µM (inactive)
GI50 [40]: > 100 µM (inactive)
GI50 [41]: > 100 µM (inactive)
GI50 [42]: > 100 µM (inactive)
GI50 [43]: > 100 µM (inactive)
GI50 [44]: > 100 µM (inactive)
GI50 [46]: > 100 µM (inactive)
GI50 [47]: > 100 µM (inactive)
GI50 [48]: > 100 µM (inactive)
GI50 [49]: > 100 µM (inactive)
GI50 [51]: > 100 µM (inactive)
GI50 [52]: > 100 µM (inactive)
GI50 [53]: > 100 µM (inactive)
GI50 [54]: > 100 µM (inactive)
GI50 [55]: > 100 µM (inactive)
GI50 [56]: > 100 µM (inactive)
GI50 [57]: > 100 µM (inactive)
GI50 [58]: > 100 µM (inactive)
